Patent US8937072B2, “Substituted cyanoaniline compounds, preparation and use thereof” (Sinochem Corporation, priority 2011, dated 2015)

How the values were obtained:
cucumber downy mildew = assay: Protectant activity in vivo (whole plant) against cucumber downy mildew
Procedure: (§1) The method is as followed: The whole plant is used in this test. The compound is dissolved in a proper solvent to get mother solution. The proper solvent is selected from acetone, methanol, DMF and so on according to their dissolving capability to the sample. The volume rate of solvent and testing solution (v/v) is equal to or less than 5%. The mother solution is diluted with water containing 0.1% tween-80 to get the testing solution whose concentration is designed. The testing solution is sprayed to the host plant by a special plant sprayer. The plant is inoculated with fungus after 24 hours. According to the infecting characteristic of fungus, the plant is stored in a humidity chamber and then transferred into greenhouse after infection is finished. And the other plants are placed in greenhouse directly. The activity of compound is obtained by eyeballing after 7 days in common.

corn rust = assay: Protectant activity in vivo (whole plant) against corn rust
Procedure: as §1

cucumber gray mold = assay: Activity in vitro (96-well, High Through Put): inhibition rate against cucumber gray mold; format: cell-based; conditions: for inhibition rate against cucumber gray mold: in vitro, dose 0.9 mg/L
Procedure: The method is as followed: High Through Put is used in the test. The compound is dissolved in a proper solvent to become a testing solution whose concentration is designed. The solvent is selected from acetone, methanol, DMF and so on according to their dissolving capability to the sample. In a no animalcule condition, the testing solution and pathogens suspension are added into the cells of 96 cells culture board, which then should be placed in the constant temperature box. 24 hours later, pathogen germination or growth can be investigated by eyeballing, and the activity in vitro of the compound is evaluated based on germination or growth of control treatment.

SMILES | protectant activity against cucumber downy mildew in vivo (cucumber downy mildew; dose 400 mg/L) [%] | protectant activity against corn rust in vivo (corn rust; dose 400 mg/L) [%] | further results
N#Cc1c(Cl)c(Cl)c(Nc2ccc([N+](=O)[O-])cc2Cl)c(Cl)c1C#N [Compound A-15] | 100 | 100 | protectant activity against cucumber downy mildew in vivo (cucumber downy mildew; dose 50 mg/L): 100%; protectant activity against cucumber downy mildew in vivo (cucumber downy mildew; dose 100 mg/L): 100%; the inhibition rate against cucumber gray mold (%) (cucumber gray mold; 0.3 mg/L): 100%; the inhibition rate against cucumber gray mold (%) (cucumber gray mold; 0.9 mg/L): 100%; the inhibition rate against cucumber gray mold (%) (cucumber gray mold; 2.8 mg/L): 100%; the inhibition rate against cucumber gray mold (%) (cucumber gray mold; 8.3 mg/L): 100%
N#Cc1cc(C#N)c(Nc2c(Cl)c(C#N)c(Cl)c(Cl)c2C#N)nc1Cl [Compound C-114] | – | 100 | –
N#Cc1c(Cl)c(Cl)c(C#N)c(Nc2ccc([N+](=O)[O-])cc2F)c1Cl [Compound C-27] | 100 | – | protectant activity against cucumber downy mildew in vivo (cucumber downy mildew; dose 25 mg/L): 100%; protectant activity against cucumber downy mildew in vivo (cucumber downy mildew; dose 50 mg/L): 100%; protectant activity against cucumber downy mildew in vivo (cucumber downy mildew; dose 100 mg/L): 100%; inhibition rate against cucumber gray mold (cucumber gray mold): 80%
N#Cc1c(Cl)c(Cl)c(C#N)c(Nc2c(Br)cc([N+](=O)[O-])cc2Br)c1Cl [Compound C-41] | – | 100 | the protectant activity (%) against corn rust (corn rust; 6.25 mg/L): 50%; the protectant activity (%) against corn rust (corn rust; 25 mg/L): 90%; the protectant activity (%) against corn rust (corn rust; 100 mg/L): 100%; the protectant activity (%) against corn rust (corn rust; 400 mg/L): 100%; protectant activity against corn rust in vivo (corn rust; dose 25 mg/L): 90%; protectant activity against corn rust in vivo (corn rust; dose 100 mg/L): 100%
N#Cc1c(Cl)c(Cl)c(Nc2ccc(F)cc2F)c(C#N)c1Cl [Compound B-14] | 100 | 100 | –
N#Cc1c(Cl)c(Cl)c(C#N)c(Nc2ccc(Cl)cc2[N+](=O)[O-])c1Cl [Compound C-33] | 100 | 100 | –
N#Cc1c(F)c(F)c(C#N)c(Nc2c(Cl)cncc2Cl)c1F [Compound C-125] | – | 100 | –
Cc1c(Cl)c([N+](=O)[O-])cc([N+](=O)[O-])c1Nc1c(Cl)c(Cl)c(C#N)c(C#N)c1Cl [Compound A-61] | 100 | – | –
N#Cc1cc([N+](=O)[O-])ccc1Nc1c(Cl)c(Cl)c(C#N)c(Cl)c1C#N [Compound B-38] | 100 | 100 | –
Cc1c(Cl)c([N+](=O)[O-])cc([N+](=O)[O-])c1Nc1c(Cl)c(Cl)c(C#N)c(Cl)c1C#N [Compound B-68] | 100 | – | protectant activity against cucumber downy mildew in vivo (cucumber downy mildew; dose 100 mg/L): 100%; inhibition rate against cucumber gray mold (cucumber gray mold): 80%
N#Cc1c(Cl)c(Cl)c(Nc2cc(Cl)cnc2Cl)c(Cl)c1C#N [Compound A-85] | 100 | 80 | –
N#Cc1c(F)c(F)c(C#N)c(Nc2c(Cl)cc([N+](=O)[O-])cc2Br)c1F [Compound C-99] | – | 100 | –
CCN(CC)c1c(Cl)c(Nc2ccccc2[N+](=O)[O-])c(C#N)c(Cl)c1C#N [Compound B-70] | – | 100 | –
N#Cc1c(F)c(F)c(C#N)c(Nc2ccc(Cl)cc2[N+](=O)[O-])c1F [Compound C-89] | – | 80 | –
N#Cc1c(Cl)c(Cl)c(Nc2ccc(C(F)(F)F)cc2Cl)c(Cl)c1C#N [Compound A-17] | 100 | – | –
N#Cc1cc([N+](=O)[O-])cc(Br)c1Nc1c(F)c(C#N)c(F)c(F)c1C#N [Compound C-97] | 100 | – | –
